Assay results: patent US9901636B2, “Conjugate of a photosensitiser and chitosan and uses thereof” (PCI BIOTECH AS, priority 2012, dated 2018)

Tests used:
[1] = Bhaumik et al., excited at 418 nm in DMF, TPP as standard; cited from earlier work
[2] = Partitioning in aqueous:CHCl3 two-phase system; assay type: physicochemical; conditions: two-phase H2O/CHCl3 system (FIG. 6)
Excerpt: (A) TPP(p-NH2)13 (B) TPPNH-Pip 5 (C) TPPp0.25-CS-TMA0.75 17A (D) TPPp0.25-CS-MP0.75 19A. Aqueous phases are shown on top.
In the ^1H NMR spectra of final compound TPPp0.1-CS-MP0.9 18A all peaks of the chitosan backbone along with the 1-methyl piperazine peaks can be clearly identified; however there is no observable NMR signal of the TPP moiety (FIG. 5E). […] In d6-DMSO the TPP peaks could be observed but in this case the chitosan backbone peaks were broadened and not clearly identifiable. […] The TPPp0.1-CS-MP0.9 18A has a dark red color confirming the presence of the PS.

[3] = Fluorescence quantum yield, steady-state comparative method vs anthracene; assay type: physicochemical; conditions: DMSO at room temperature
Method: UV-Vis measurements were recorded on a Perkin-Elmer Lambda 25 UV-Vis. spectrometer equipped with a Peltier Temperature Programmer. Fluorescence emission spectra were obtained using a SPEX FluoroMax spectrometer, using a cell with spectral range 170-2200 nm (Spectrocell Corporation, Oreland, Pa., USA). Absorption spectra were recorded at 20° C. and fluorescence emission spectra were recorded at ambient temperature, using quartz cuvette with a 10 mm path length. All the fluorescence spectra were recorded with constant slit widths, 1 nm for excitation and 1 nm for emission and fluorescence spectra were averaged over three scans for quantum yield study. However, for FIG. 5 (III) fluorescence spectra were obtained with slit widths 3 nm for excitation and 3 nm for emission.
Fluorescence quantum yields of compounds 3, 5, 16A-19B (all excited at Δex.=λmax=419 nm) were determined relative to a dilute solution of standard anthracene (φF=0.27, λex=365.5 nm) in absolute ethanol by using the steady-state comparative method. using the following equation: φX=φST(GradX/GradST)(ηS^2,ηST^2) where, the subscripts ST and X denote standard and test respectively, φ is the fluorescence quantum yield, Grad the gradient from the plot of integrated fluorescence intensity versus absorbance, and η the refractive index of the solvent.

[4] = Table 2, excited at 419 nm, standard anthracene
[5] = Table 4, λabs 420 nm, λem 653 nm

Row | Compound | Fluorescence quantum yield (φF), literature value [1] | Partitioning between aqueous and organic phase [2] | Quantum Yield (φF) [3, 4] | Quantum Yield (φF) [3, 5]
1 | Nc1ccc(-c2c3nc(c(-c4ccccc4)c4ccc([nH]4)c(-c4ccccc4)c4nc(c(-c5ccccc5)c5ccc2[nH]5)C=C4)C=C3)cc1 [Compound 3, 5-(4-Aminophenyl)-10,15,20-triphenylporphyrin, reference compound] | 0.05 | did not partition into the aqueous phase | 0.0002 | –
2 | Nc1ccc(-c2c3nc(c(-c4ccccc4)c4ccc([nH]4)c(-c4ccccc4)c4nc(c(-c5ccccc5)c5ccc2[nH]5)C=C4)CC3)cc1 [Compound 20, 5-(4-Aminophenyl)-10,15,20-triphenylchlorin] | – | – | – | 0.00246
3 | O=C(CN1CCNCC1)Nc1ccc(-c2c3nc(c(-c4ccccc4)c4ccc([nH]4)c(-c4ccccc4)c4nc(c(-c5ccccc5)c5ccc2[nH]5)C=C4)C=C3)cc1 [Compound 5, 5-(4α-Piperazineacetylamidophenyl)-10,15,20-triphenylporphyrin] | – | did not partition into the aqueous phase | 0.0036 | –
4 | 5-(4-Carboxyphenyl)-10,15,20-triphenylchlorin [Compound 26] | – | – | – | 0.01331
